Values quoted from earlier work in patent US11311573B2, “Pharmaceutical preparations and methods to manage weight and to modulate the gut microbiota” (XENO BIOSCIENCES INC., priority 2016, dated 2022).

Conditions: rat, based on chronic oral hydrogen peroxide treatment

For O=C([O-])[O-].O=C([O-])[O-].OO.OO.OO.[Na+].[Na+].[Na+].[Na+] [sodium percarbonate, Sodium percarbonate], the “No-observable-adverse-effect-level (NOAEL)” value is listed as 81 to 115 mg/kg/day.
